This passage reports CC50, EC50 and selectivity ratio results from ChEMBL document CHEMBL5614387, “Discovery of 2,4,6-trisubstituted pyrimidine derivatives as novel potent HIV-1 NNRTIs by exploiting the tolerant region II of the NNIBP” (Eur J Med Chem, 2024).

One may read the CC50 as the concentration giving 50% cytotoxicity. The term EC50 denotes the concentration that produces a half-maximal response.

Molecules are shown by their SMILES.

A short description of series [1]: Cytotoxicity against human MT4 cells assessed as reduction in cell viability by MTT assay. Format: toxicity, cell-based.
For series [2], the system named is Human immunodeficiency virus 1. Kind of series: Antiviral activity against wild-type HIV-1 IIIB infected in human MT4 cells assessed as protection against virus-induced cytopathic effect by MTT assay. To be noted: Human immunodeficiency virus 1, IIIB. Format: functional, organism-based.
Series [3] can be described thus: Selectivity index, ratio of CC50 for human MT4 cells to EC50 for wild-type HIV-1 IIIB infected in human MT4 cells. The format is toxicity, cell-based. The settings on record: read-out: Ratio CC50/EC50.
In series [4] the test system is Human immunodeficiency virus 1. In words: Antiviral activity against HIV-1 harboring RT Y188L mutant infected in human MT4 cells assessed as protection against virus-induced cytopathic effect by MTT assay. Format: functional, organism-based. To be noted: Human immunodeficiency virus 1, MT4. On the technique in general: Damage to the host cells serves as the signal in cytopathic effect assays.

Series [5] relates to Human immunodeficiency virus 1. Kind of series: Antiviral activity against HIV-1 harboring RT F227L/V106A mutant infected in human MT4 cells assessed as protection against virus-induced cytopathic effect by MTT assay. Format: functional, organism-based. To be noted: Human immunodeficiency virus 1, MT4.
Series [6] deals with Human immunodeficiency virus 1. In words: Antiviral activity against HIV-1 harboring RT L100I mutant infected in human MT4 cells assessed as protection against virus-induced cytopathic effect by MTT assay. To be noted: Human immunodeficiency virus 1, MT4. Format: functional, organism-based.
Series [7] concerns Human immunodeficiency virus 1. Kind of series: Antiviral activity against HIV-1 harboring RT E138K mutant infected in human MT4 cells assessed as protection against virus-induced cytopathic effect by MTT assay. The format is functional, organism-based. To be noted: Human immunodeficiency virus 1, MT4.
The subject of series [8] is Human immunodeficiency virus 1. Kind of series: Antiviral activity against HIV-1 harboring RT RES056 mutant infected in human MT4 cells assessed as protection against virus-induced cytopathic effect by MTT assay. The format is functional, organism-based. The settings on record: Human immunodeficiency virus 1, MT4.

Take `Cc1cc(C#N)cc(C)c1Oc1cc(-c2ccccc2)nc(NC2CCN(Cc3ccc(S(N)(=O)=O)cc3)CC2)n1`: the half-maximal cytotoxic concentration (CC50) in series [1] was 18 µM. Further, the concentration giving a half-maximal response (EC50) in series [2] is 6.01 nM. The selectivity ratio in series [3] is 3000.
In the same order, the values of `Cc1cc(C#N)cc(C)c1Oc1cc(-c2ccsc2)nc(NC2CCN(Cc3ccc(S(C)(=O)=O)cc3)CC2)n1` are over 219 µM, 167 nM and over 1310.
In the same order, the values of `Cc1cc(C#N)cc(C)c1Oc1cc(-c2cncnc2)nc(NC2CCN(Cc3ccc(S(C)(=O)=O)cc3)CC2)n1` are 108 µM, 6.72 nM and 16100.
The corresponding values for `Cc1cc(C#N)cc(C)c1Oc1cc(-c2ccco2)nc(NC2CCN(Cc3ccc(S(C)(=O)=O)cc3)CC2)n1` are 20.7 µM, 5.68 nM and 3640.
In the case of `Cc1cc(C#N)cc(C)c1Oc1cc(-c2ccccc2)nc(NC2CCN(Cc3ccc(C(N)=O)cc3)CC2)n1`, the CC50 in series [1] came to 23.1 µM. The EC50 in series [2] was 6.23 nM. Also, the selectivity ratio in series [3] was 3710.
The corresponding values for `Cc1cc(C#N)cc(C)c1Oc1cc(-c2ccoc2)nc(NC2CCN(Cc3ccc(C(N)=O)cc3)CC2)n1` are 19.8 µM, 5.49 nM and 3610.
The corresponding values for `Cc1cc(C#N)cc(C)c1Oc1cc(-c2ccco2)nc(NC2CCN(Cc3ccc(S(N)(=O)=O)cc3)CC2)n1` are 22.8 µM, 7.85 nM and 2900.
In the same order, the values of `Cc1cc(C#N)cc(C)c1Oc1cc(-c2ccco2)nc(NC2CCN(Cc3ccc(C(N)=O)cc3)CC2)n1` are 24 µM, 15.5 nM and 1550.
With `Cc1cc(C#N)cc(C)c1Oc1cc(-c2ccoc2)nc(NC2CCN(Cc3ccc(S(N)(=O)=O)cc3)CC2)n1`, in series [1], the CC50 is 29.5 µM. In addition, in series [2], the EC50 was determined as 9.36 nM. In series [3], the selectivity ratio is 3150.
Take `Cc1cc(C#N)cc(C)c1Oc1cc(-c2ccsc2)nc(NC2CCN(Cc3ccc(C(N)=O)cc3)CC2)n1`: the CC50 in series [1] is 23.7 µM. Further, in series [2], the EC50 was found to be 5.06 nM. Also, in series [3], the selectivity ratio worked out at 4680.
On to `Cc1cc(C#N)cc(C)c1Oc1cc(-c2cccs2)nc(NC2CCN(Cc3ccc(S(N)(=O)=O)cc3)CC2)n1`, for which, in series [1], the cytotoxic concentration (CC50) is 24.6 µM. For the same compound, the 50% effective concentration (EC50) in series [2] was 10.6 nM. Further, the selectivity ratio in series [3] was found to be 2320.
In the same order, the values of `Cc1cc(C#N)cc(C)c1Oc1cc(-c2ccoc2)nc(NC2CCN(Cc3ccc(S(C)(=O)=O)cc3)CC2)n1` are 22.6 µM, 5.56 nM and 4060.
Consider `Cc1cc(C#N)cc(C)c1Oc1cc(-c2ccncc2)nc(NC2CCN(Cc3ccc(C(N)=O)cc3)CC2)n1`, for which the CC50 in series [1] was determined as 21.2 µM. Moreover, the EC50 in series [2] stood at 7.39 nM. The selectivity ratio in series [3] came out at 2870.
As to `Cc1cc(C#N)cc(C)c1Oc1cc(-c2cccs2)nc(NC2CCN(Cc3ccc(S(C)(=O)=O)cc3)CC2)n1`, the CC50 in series [1] was found to be 16.6 µM. In series [2], the half-maximal effective concentration (EC50) came to 5.53 nM. For the same compound, the selectivity ratio in series [3] is 3000.
As for `O=C1Nc2ccc(Cl)cc2[C@@](C#CC2CC2)(C(F)(F)F)O1` [EFAVIRENZ], the EC50 is 396 nM in series [4]; 261 nM in series [5]; 28.9 nM in series [6]; 8.82 nM in series [7]; 3.67 nM in series [2]. Besides, the CC50 in series [1] is over 6.34 µM.
As to `Cc1cc(C#N)cc(C)c1Oc1nc(Nc2ccc(C#N)cc2)nc(N)c1Br` [ETRAVIRINE], the EC50 was determined as 30.5 nM in series [4], 14.9 nM in series [7] and 32.3 nM in series [8]. The CC50 in series [1] was over 4.59 µM.
